# Results from ChEMBL document CHEMBL1151103, “Studies on cytotoxic constituents in pericarps of Mallotus japonicus, Part III” (1988).
# Test system: KB
# Test: Cytotoxicity against human KB cells
# Assay type: functional
# Settings: read-out: ED50 (the source's name)
row,Compound,EC50
1,CCCC(=O)c1c(O)c(Cc2c(O)c(C(C)=O)c(O)c(C)c2OC)c(O)c2c1OC(C)(C)C=C2 [BUTYRYLMALLOTOCHROMENE],3.3 µg/mL
2,COc1c(C)c(OC(C)=O)c(C(C)=O)c(OC(C)=O)c1Cc1c(OC(C)=O)c2c(c(C(=O)C(C)C)c1OC(C)=O)OC(C)(C)C=C2,2.65 µg/mL
3,CCCC(=O)c1c(O)c(Cc2c(OC)c(C)c(O)c(C(C)=O)c2OC)c(OC)c2c1OC(C)(C)C=C2,5.9 µg/mL
4,CCCC(=O)c1c2c(c(OC(C)=O)c(Cc3c(OC)c(C)c(OC(C)=O)c(C(C)=O)c3OC(C)=O)c1OC(C)=O)C=CC(C)(C)O2,2.55 µg/mL
5,COc1c(C)c(O)c(C(C)=O)c(O)c1Cc1c(O)c2c(c(C(=O)C(C)C)c1O)OC(C)(C)C=C2 [ISOBUTYRYLMALLOTOCHROMENE],0.4 µg/mL
6,COc1c(C)c(O)c(C(C)=O)c(OC)c1Cc1c(O)c(C(=O)C(C)C)c2c(c1OC)C=CC(C)(C)O2,5.5 µg/mL
